Test results from US20240247035A1, “STAPLED ANTIMICROBIAL PEPTIDES (STAMPS) AND USES THEREOF” (Lytica Therapeutics, Inc., priority 2021, published 2024).
Values after ≈ are worked out from the molar mass of the structure shown. Bridge positions count the residues as written; N and C are the ends. Square brackets hold non-standard residues; d marks the D form. Peptide text beside a SMILES is read from it. Phe(4-tBu) = CC(C)(C)c1ccc(C[C@H](N)C(=O)O)cc1; S5 = C=CCCC[C@](C)(N)C(=O)O; Orn = NCCC[C@H](N)C(=O)O; Dab = NCC[C@H](N)C(=O)O; Dap = NC[C@H](N)C(=O)O

What was measured:
[1] = 90 minute cytotoxicity assay (LDH release), renal toxicity; format: cell-based; details: human
Description: (§1) Cell culture: RPTEC were maintained in MEM media supplemented with growth factors. HEPG2 cell line was maintained in Eagle's Minimum Essential Medium (EMEM) supplemented with fetal bovine serum to a final concentration of 10%.
90 minute cytotoxicity assay: Cells were plated in a 96-well format, and after overnight incubation, media was replaced with fresh media. Serial dilutions of StAMPs from a 5 mg/mL water stock, or vehicle, were added to the cells in a final volume of 100 μl. After incubating at 37° C. for 90 min, 50 μl of cell culture media was transferred to a clear 96-well plate, incubated with 50 μl of lactate dehydrogenase (LDH) assay reagent for 10 min, and absorbance measured at 490 nm on a microplate reader.
(§2) Renal toxicity was measured after 90 minutes of incubation, while liver toxicity was measured after 48 hours of incubation with StAMPs. N/A=not tested.

[2] = 48 hours cytotoxicity assay (CellTiter-Glo), liver toxicity; format: cell-based; details: human
Description: as §1
48 hours cytotoxicity assay: Cells were plated in a 96-well format, and after 4 hour incubation to allow attachment, serial dilutions of StAMPs from a 5 mg/mL water stock, or vehicle, were then added to the cells in a final volume of 100 μl. After incubating at 37° C. for 48 hours, 100 μl of CellTiter-Glo® reagent was added to the cells, and the plates were incubated 10 minutes at room temperature. Luminescence was then measured on a microplate reader.
as §2

| SMILES | IC50 at 90 min [1] [µg/mL] | IC50 at 48 hours [2] [µg/mL] |
| --- | --- | --- |
| CC[C@H](C)[C@@H]1NC(=O)[C@@](C)(NC(=O)[C@H](CC(C)C)NC(=O)[C@H](CC(N)=O)NC(=O)[C@H](CCCCN)NC(=O)[C@H](CC(C)C)NC(=O)[C@H](CCCCN)NC(=O)[C@H](CCCCN)NC(=O)CNC(=O)[C@H](C)NC(=O)[C@]2(C)CCCC=CCCC[C@](C)(NC(=O)CN)C(=O)N[C@@H](Cc3ccccc3)C(=O)N[C@@H](CO)C(=O)N[C@@H](CCCCN)C(=O)N2)CCCC=CCCC[C@@](C)(C(=O)N[C@@H](CCCCN)C(=O)N[C@@H](CC(N)=O)C(N)=O)NC(=O)CNC(=O)[C@H](CO)NC1=O [compound 13] (H-G[S5]FSK[S5]AGKKLKNL[S5]ISG[S5]KN-NH2; staple 2-6, 15-19) | 17 (≈ 7.42 µM) | 210 (≈ 91.7 µM) |
| CC[C@H](C)[C@H](NC(=O)[C@H](CCN)NC(=O)[C@H](CCN)NC(=O)CNC(=O)[C@H](CCN)NC(=O)[C@]1(C)CCCC=CCCC[C@](C)(NC(=O)CN)C(=O)N[C@@H](Cc2ccccc2)C(=O)N[C@@H](CO)C(=O)N[C@@H](CCN)C(=O)N1)C(=O)N[C@@H](CCN)C(=O)N[C@@H](CC(N)=O)C(=O)N[C@@H](CC(C)C)C(=O)N[C@@]1(C)CCCC=CCCC[C@@](C)(C(=O)N[C@@H](CCN)C(=O)NCC(N)=O)NC(=O)CNC(=O)[C@H](CO)NC(=O)[C@H]([C@@H](C)CC)NC1=O [compound 14] (H-G[S5]FS[Dab][S5][Dab]G[Dab][Dab]I[Dab]NL[S5]ISG[S5][Dab]G-NH2; staple 2-6, 15-19) | 40 (≈ 18.9 µM) | ~150 (≈ 70.7 µM) |
| CC[C@H](C)[C@H](NC(=O)[C@H](CCCN)NC(=O)[C@H](CCCN)NC(=O)CNC(=O)[C@H](CCCN)NC(=O)[C@]1(C)CCCC=CCCC[C@](C)(NC(=O)CN)C(=O)N[C@@H](Cc2ccccc2)C(=O)N[C@@H](CO)C(=O)N[C@@H](CCCN)C(=O)N1)C(=O)N[C@@H](CCCN)C(=O)N[C@@H](CC(N)=O)C(=O)N[C@@H](CC(C)C)C(=O)N[C@@]1(C)CCCC=CCCC[C@@](C)(C(=O)N[C@@H](CCCN)C(=O)NCC(N)=O)NC(=O)CNC(=O)[C@H](CO)NC(=O)[C@H]([C@@H](C)CC)NC1=O [compound 15] (H-G[S5]FS[Orn][S5][Orn]G[Orn][Orn]I[Orn]NL[S5]ISG[S5][Orn]G-NH2; staple 2-6, 15-19) | 25 (≈ 11.3 µM) | ~100 (≈ 45.3 µM) |
| CC[C@H](C)[C@H](NC(=O)[C@H](CN)NC(=O)[C@H](CN)NC(=O)CNC(=O)[C@H](CN)NC(=O)[C@]1(C)CCCC=CCCC[C@](C)(NC(=O)CN)C(=O)N[C@@H](Cc2ccccc2)C(=O)N[C@@H](CO)C(=O)N[C@@H](CN)C(=O)N1)C(=O)N[C@@H](CN)C(=O)N[C@@H](CC(N)=O)C(=O)N[C@@H](CC(C)C)C(=O)N[C@@]1(C)CCCC=CCCC[C@@](C)(C(=O)N[C@@H](CN)C(=O)NCC(N)=O)NC(=O)CNC(=O)[C@H](CO)NC(=O)[C@H]([C@@H](C)CC)NC1=O [compound 16] (H-G[S5]FS[Dap][S5][Dap]G[Dap][Dap]I[Dap]NL[S5]ISG[S5][Dap]G-NH2; staple 2-6, 15-19) | > 200 | ~200 (≈ 98.2 µM) |
| CC[C@H](C)[C@H](NC(=O)[C@H](CCCCN)NC(=O)[C@H](CCCCN)NC(=O)CNC(=O)[C@H](CCCCN)NC(=O)[C@]1(C)CCCC=CCCC[C@](C)(NC(=O)CN)C(=O)N[C@@H](CCCCN)C(=O)N[C@@H](CO)C(=O)N[C@@H](CCCCN)C(=O)N1)C(=O)N[C@@H](CCCCN)C(=O)N[C@@H](CC(N)=O)C(=O)N[C@@H](CC(C)C)C(=O)N[C@@]1(C)CCCC=CCCC[C@@](C)(C(=O)N[C@@H](CCCCN)C(=O)N[C@@H](CC(N)=O)C(N)=O)NC(=O)CNC(=O)[C@H](CO)NC(=O)[C@H]([C@@H](C)CC)NC1=O [compound 17] (H-G[S5]KSK[S5]KGKKIKNL[S5]ISG[S5]KN-NH2; staple 2-6, 15-19) | 325 (≈ 140 µM) | 172 (≈ 73.9 µM) |
| CC[C@H](C)[C@H](NC(=O)[C@H](CCCCN)NC(=O)[C@H](CCCCN)NC(=O)CNC(=O)[C@H](CCCCN)NC(=O)[C@]1(C)CCCC=CCCC[C@](C)(NC(=O)CN)C(=O)N[C@@H](CCCCN)C(=O)N[C@@H](CO)C(=O)N[C@@H](CCCCN)C(=O)N1)C(=O)N[C@@H](CCCCN)C(=O)N[C@@H](CC(N)=O)C(=O)N[C@@H](Cc1ccc(C(C)(C)C)cc1)C(=O)N[C@@]1(C)CCCC=CCCC[C@@](C)(C(=O)N[C@@H](CCCCN)C(=O)N[C@@H](CC(N)=O)C(N)=O)NC(=O)CNC(=O)[C@H](CO)NC(=O)[C@H]([C@@H](C)CC)NC1=O [compound 19] (H-G[S5]KSK[S5]KGKKIKN[Phe(4-tBu)][S5]ISG[S5]KN-NH2; staple 2-6, 15-19) | 68 (≈ 28.1 µM) | 23 (≈ 9.51 µM) |
| CC[C@H](C)[C@H](NC(=O)[C@H](CCCCN)NC(=O)[C@H](CCCCN)NC(=O)CNC(=O)[C@H](CCCCN)NC(=O)[C@]1(C)CCCC=CCCC[C@](C)(NC(=O)CN)C(=O)N[C@@H](CCCCN)C(=O)N[C@@H](CO)C(=O)N[C@@H](CCCCN)C(=O)N1)C(=O)N[C@@H](CCCCN)C(=O)N[C@@H](CC(N)=O)C(=O)N[C@@H](CC(C)C)C(=O)N[C@@]1(C)CCCC=CCCC[C@@](C)(C(=O)N[C@@H](CCCCN)C(=O)N[C@@H](CC(N)=O)C(N)=O)NC(=O)CNC(=O)[C@H](CO)NC(=O)[C@H](Cc2ccc(C(C)(C)C)cc2)NC1=O [compound 20] (H-G[S5]KSK[S5]KGKKIKNL[S5][Phe(4-tBu)]SG[S5]KN-NH2; staple 2-6, 15-19) | 46 (≈ 19 µM) | 29 (≈ 12 µM) |
| CC[C@H](C)[C@H](NC(=O)[C@H](CCCCN)NC(=O)[C@H](CCCCN)NC(=O)CNC(=O)[C@H](CCCCN)NC(=O)[C@]1(C)CCCC=CCCC[C@](C)(NC(=O)CN)C(=O)N[C@@H](CCCCN)C(=O)N[C@@H](CO)C(=O)N[C@@H](CCCCN)C(=O)N1)C(=O)N[C@@H](CCCCN)C(=O)N[C@@H](CC(N)=O)C(=O)N[C@@H](CC(C)C)C(=O)N[C@@]1(C)CCCC=CCCC[C@@](C)(C(=O)N[C@@H](CCCCN)C(=O)N[C@@H](CC(N)=O)C(N)=O)NC(=O)[C@H](C(C)C)NC(=O)[C@H](CO)NC(=O)[C@H]([C@@H](C)CC)NC1=O [compound 21] (H-G[S5]KSK[S5]KGKKIKNL[S5]ISV[S5]KN-NH2; staple 2-6, 15-19) | 54 (≈ 22.8 µM) | 32 (≈ 13.5 µM) |
| CC[C@H](C)[C@H](NC(=O)[C@H](CCCCN)NC(=O)[C@H](CCCCN)NC(=O)CNC(=O)[C@H](CCCCN)NC(=O)[C@]1(C)CCCC=CCCC[C@](C)(NC(=O)CN)C(=O)N[C@@H](CCCCN)C(=O)N[C@@H](CO)C(=O)N[C@@H](CCCCN)C(=O)N1)C(=O)N[C@@H](CCCCN)C(=O)N[C@@H](CC(N)=O)C(=O)N[C@@H](CC(C)C)C(=O)N[C@@]1(C)CCCC=CCCC[C@@](C)(C(=O)N[C@@H](CCCCN)C(=O)N[C@@H](CC(N)=O)C(N)=O)NC(=O)[C@H](Cc2ccccc2)NC(=O)[C@H](CO)NC(=O)[C@H]([C@@H](C)CC)NC1=O [compound 22] (H-G[S5]KSK[S5]KGKKIKNL[S5]ISF[S5]KN-NH2; staple 2-6, 15-19) | 16 (≈ 6.62 µM) | 67 (≈ 27.7 µM) |
| CC[C@H](C)[C@H](NC(=O)[C@H](CCCCN)NC(=O)[C@H](CCCCN)NC(=O)CNC(=O)[C@H](CCCCN)NC(=O)[C@]1(C)CCCC=CCCC[C@](C)(NC(=O)CN)C(=O)N[C@@H](CCCCN)C(=O)N[C@@H](CO)C(=O)N[C@@H](CCCCN)C(=O)N1)C(=O)N[C@@H](CCCCN)C(=O)N[C@@H](CC(N)=O)C(=O)N[C@@H](CC(C)C)C(=O)N[C@@]1(C)CCCC=CCCC[C@@](C)(C(=O)N[C@@H](CCCCN)C(=O)N[C@@H](CC(N)=O)C(=O)N[C@@H](CCC(=O)O)C(N)=O)NC(=O)[C@H](Cc2ccccc2)NC(=O)[C@H](CO)NC(=O)[C@H]([C@@H](C)CC)NC1=O [compound 23] (H-G[S5]KSK[S5]KGKKIKNL[S5]ISF[S5]KNE-NH2; staple 2-6, 15-19) | 62 (≈ 24.3 µM) | 53 (≈ 20.8 µM) |
